Test results: patent publication US20010046987A1, “Oxazolidinones having a sulfoximine functionality” (priority 1999, published 2001)

Key:
Type in all cases: cell-based
Staphylococcus aureus = assay: MIC by agar dilution, SAUR 9213; conditions: strain SAUR 9213
Excerpt: (§1) The in vitro activity of compounds of this invention can be assessed by standard testing procedures such as the determination of minimum inhibitory concentration (MIC) by agar dilution as described in “Approved Standard.

Streptococcus pneumoniae = assay: MIC by agar dilution, SPNE 9912; conditions: strain SPNE 9912
Excerpt: as §1

Enterococcus faecalis = assay: MIC by agar dilution, EFAE 9217; conditions: strain EFAE 9217
Excerpt: as §1

Moraxella catarrhalis = assay: MIC by agar dilution, MCAT 30607; conditions: strain MCAT 30607
Excerpt: as §1

[1] = tested on: Staphylococcus epidermidis; assay: MIC by agar dilution, SEPI 30593; conditions: strain SEPI 30593
Excerpt: as §1

H. influenzae = assay: MIC by agar dilution, HINF 30063; conditions: strain HINF 30063
Excerpt: as §1

Streptococcus pyogenes = assay: MIC by agar dilution, SPYO 152; conditions: strain SPYO 152
Excerpt: as §1

Enterococcus faecium = assay: MIC by agar dilution, EFAE 12712; conditions: strain EFAE 12712
Excerpt: as §1

## CC(=O)NC[C@H]1CN(c2ccc(C3CCS(=N)(=O)CC3)c(F)c2)C(=O)O1 (single isomer, unassigned) [Example 4]
Staphylococcus aureus
  Antibacterial Activity Minimum Inhibitory Concentration SAUR 9213: 16 µg/mL
Streptococcus pneumoniae
  Antibacterial Activity Minimum Inhibitory Concentration SPNE 9912: 1 µg/mL
Enterococcus faecalis
  Antibacterial Activity Minimum Inhibitory Concentration EFAE 9217: 2 µg/mL
Moraxella catarrhalis
  Antibacterial Activity Minimum Inhibitory Concentration MCAT 30607: 4 µg/mL
[1]
  Antibacterial Activity Minimum Inhibitory Concentration SEPI 30593: 2 µg/mL
H. influenzae
  Antibacterial Activity Minimum Inhibitory Concentration HINF 30063: 8 µg/mL
Streptococcus pyogenes
  Antibacterial Activity Minimum Inhibitory Concentration SPYO 152: 1 µg/mL
Enterococcus faecium
  Antibacterial Activity Minimum Inhibitory Concentration EFAE 12712: 4 µg/mL

## CC(=O)NC[C@H]1CN(c2ccc(C3CCS(=N)(=O)CC3)c(F)c2)C(=O)O1 (single isomer, unassigned) [Example 8]
Staphylococcus aureus
  Antibacterial Activity Minimum Inhibitory Concentration SAUR 9213: 8 µg/mL
Streptococcus pneumoniae
  Antibacterial Activity Minimum Inhibitory Concentration SPNE 9912: 0.5 µg/mL
Enterococcus faecalis
  Antibacterial Activity Minimum Inhibitory Concentration EFAE 9217: 2 µg/mL
Moraxella catarrhalis
  Antibacterial Activity Minimum Inhibitory Concentration MCAT 30607: 2 µg/mL
[1]
  Antibacterial Activity Minimum Inhibitory Concentration SEPI 30593: 1 µg/mL
H. influenzae
  Antibacterial Activity Minimum Inhibitory Concentration HINF 30063: 8 µg/mL
Streptococcus pyogenes
  Antibacterial Activity Minimum Inhibitory Concentration SPYO 152: 1 µg/mL
Enterococcus faecium
  Antibacterial Activity Minimum Inhibitory Concentration EFAE 12712: 2 µg/mL

## CC(=S)NC[C@H]1CN(c2ccc(C3CCS(=N)(=O)CC3)c(F)c2)C(=O)O1 (single isomer, unassigned) [Example 9]
Staphylococcus aureus
  Antibacterial Activity Minimum Inhibitory Concentration SAUR 9213: 0.5 µg/mL
Streptococcus pneumoniae
  Antibacterial Activity Minimum Inhibitory Concentration SPNE 9912: 0.25 µg/mL
Enterococcus faecalis
  Antibacterial Activity Minimum Inhibitory Concentration EFAE 9217: 0.5 µg/mL
Moraxella catarrhalis
  Antibacterial Activity Minimum Inhibitory Concentration MCAT 30607: 2 µg/mL
[1]
  Antibacterial Activity Minimum Inhibitory Concentration SEPI 30593: 0.125 µg/mL
H. influenzae
  Antibacterial Activity Minimum Inhibitory Concentration HINF 30063: 2 µg/mL
Streptococcus pyogenes
  Antibacterial Activity Minimum Inhibitory Concentration SPYO 152: 0.25 µg/mL
Enterococcus faecium
  Antibacterial Activity Minimum Inhibitory Concentration EFAE 12712: 0.5 µg/mL

## CCC(=S)NC[C@H]1CN(c2ccc(C3CCS(=N)(=O)CC3)c(F)c2)C(=O)O1 (single isomer, unassigned) [Example 10]
Staphylococcus aureus
  Antibacterial Activity Minimum Inhibitory Concentration SAUR 9213: 1 µg/mL
Streptococcus pneumoniae
  Antibacterial Activity Minimum Inhibitory Concentration SPNE 9912: 0.25 µg/mL
Enterococcus faecalis
  Antibacterial Activity Minimum Inhibitory Concentration EFAE 9217: 0.5 µg/mL
Moraxella catarrhalis
  Antibacterial Activity Minimum Inhibitory Concentration MCAT 30607: 2 µg/mL
[1]
  Antibacterial Activity Minimum Inhibitory Concentration SEPI 30593: 0.25 µg/mL
H. influenzae
  Antibacterial Activity Minimum Inhibitory Concentration HINF 30063: 2 µg/mL
Streptococcus pyogenes
  Antibacterial Activity Minimum Inhibitory Concentration SPYO 152: 0.25 µg/mL
Enterococcus faecium
  Antibacterial Activity Minimum Inhibitory Concentration EFAE 12712: 0.5 µg/mL

## N=S1(=O)CCC(c2ccc(N3C[C@H](CNC(=S)C4CC4)OC3=O)cc2F)CC1 (single isomer, unassigned) [Example 11]
Staphylococcus aureus
  Antibacterial Activity Minimum Inhibitory Concentration SAUR 9213: 1 µg/mL
Streptococcus pneumoniae
  Antibacterial Activity Minimum Inhibitory Concentration SPNE 9912: 0.25 µg/mL
Enterococcus faecalis
  Antibacterial Activity Minimum Inhibitory Concentration EFAE 9217: 0.5 µg/mL
Moraxella catarrhalis
  Antibacterial Activity Minimum Inhibitory Concentration MCAT 30607: 1 µg/mL
[1]
  Antibacterial Activity Minimum Inhibitory Concentration SEPI 30593: 0.5 µg/mL
H. influenzae
  Antibacterial Activity Minimum Inhibitory Concentration HINF 30063: 4 µg/mL
Streptococcus pyogenes
  Antibacterial Activity Minimum Inhibitory Concentration SPYO 152: 0.25 µg/mL
Enterococcus faecium
  Antibacterial Activity Minimum Inhibitory Concentration EFAE 12712: 0.5 µg/mL

## CC(=O)N=S1(=O)CCC(c2ccc(N3C[C@H](CNC(C)=O)OC3=O)cc2F)CC1 (single isomer, unassigned) [Example 12]
Staphylococcus aureus
  Antibacterial Activity Minimum Inhibitory Concentration SAUR 9213: 8 µg/mL
Streptococcus pneumoniae
  Antibacterial Activity Minimum Inhibitory Concentration SPNE 9912: 0.5 µg/mL
Enterococcus faecalis
  Antibacterial Activity Minimum Inhibitory Concentration EFAE 9217: 2 µg/mL
Moraxella catarrhalis
  Antibacterial Activity Minimum Inhibitory Concentration MCAT 30607: 8 µg/mL
[1]
  Antibacterial Activity Minimum Inhibitory Concentration SEPI 30593: 1 µg/mL
H. influenzae
  Antibacterial Activity Minimum Inhibitory Concentration HINF 30063: 16 µg/mL
Streptococcus pyogenes
  Antibacterial Activity Minimum Inhibitory Concentration SPYO 152: 1 µg/mL

## CCC(=S)NC[C@H]1CN(c2ccc(C3CCS(=O)(=NC(C)=O)CC3)c(F)c2)C(=O)O1 (single isomer, unassigned) [Example 14]
Staphylococcus aureus
  Antibacterial Activity Minimum Inhibitory Concentration SAUR 9213: 1 µg/mL
Streptococcus pneumoniae
  Antibacterial Activity Minimum Inhibitory Concentration SPNE 9912: 0.25 µg/mL
Enterococcus faecalis
  Antibacterial Activity Minimum Inhibitory Concentration EFAE 9217: 0.5 µg/mL
Moraxella catarrhalis
  Antibacterial Activity Minimum Inhibitory Concentration MCAT 30607: 2 µg/mL
[1]
  Antibacterial Activity Minimum Inhibitory Concentration SEPI 30593: 0.5 µg/mL
H. influenzae
  Antibacterial Activity Minimum Inhibitory Concentration HINF 30063: 4 µg/mL
Streptococcus pyogenes
  Antibacterial Activity Minimum Inhibitory Concentration SPYO 152: 0.25 µg/mL
Enterococcus faecium
  Antibacterial Activity Minimum Inhibitory Concentration EFAE 12712: 1 µg/mL

## CCOC(=O)CN=S1(=O)CCC(c2ccc(N3C[C@H](CNC(=S)CC)OC3=O)cc2F)CC1 (single isomer, unassigned) [Example 20]
Staphylococcus aureus
  Antibacterial Activity Minimum Inhibitory Concentration SAUR 9213: 2 µg/mL
Streptococcus pneumoniae
  Antibacterial Activity Minimum Inhibitory Concentration SPNE 9912: 4 µg/mL
Enterococcus faecalis
  Antibacterial Activity Minimum Inhibitory Concentration EFAE 9217: 1 µg/mL
Moraxella catarrhalis
  Antibacterial Activity Minimum Inhibitory Concentration MCAT 30607: 4 µg/mL
[1]
  Antibacterial Activity Minimum Inhibitory Concentration SEPI 30593: 1 µg/mL
H. influenzae
  Antibacterial Activity Minimum Inhibitory Concentration HINF 30063: 8 µg/mL
Streptococcus pyogenes
  Antibacterial Activity Minimum Inhibitory Concentration SPYO 152: 16 µg/mL
Enterococcus faecium
  Antibacterial Activity Minimum Inhibitory Concentration EFAE 12712: 1 µg/mL

## CCC(=S)NC[C@H]1CN(c2ccc(C3CCS(=O)(=NCCO)CC3)c(F)c2)C(=O)O1 (single isomer, unassigned) [Example 24]
Staphylococcus aureus
  Antibacterial Activity Minimum Inhibitory Concentration SAUR 9213: 2 µg/mL
Streptococcus pneumoniae
  Antibacterial Activity Minimum Inhibitory Concentration SPNE 9912: 0.25 µg/mL
Enterococcus faecalis
  Antibacterial Activity Minimum Inhibitory Concentration EFAE 9217: 1 µg/mL
Moraxella catarrhalis
  Antibacterial Activity Minimum Inhibitory Concentration MCAT 30607: 4 µg/mL
[1]
  Antibacterial Activity Minimum Inhibitory Concentration SEPI 30593: 0.5 µg/mL
H. influenzae
  Antibacterial Activity Minimum Inhibitory Concentration HINF 30063: 4 µg/mL
Streptococcus pyogenes
  Antibacterial Activity Minimum Inhibitory Concentration SPYO 152: 0.5 µg/mL
Enterococcus faecium
  Antibacterial Activity Minimum Inhibitory Concentration EFAE 12712: 1 µg/mL

## COC(=O)N=S1(=O)CCC(c2ccc(N3C[C@H](CNC(=S)C4CC4)OC3=O)cc2F)CC1 (single isomer, unassigned) [Example 30]
Staphylococcus aureus
  Antibacterial Activity Minimum Inhibitory Concentration SAUR 9213: 1 µg/mL
Streptococcus pneumoniae
  Antibacterial Activity Minimum Inhibitory Concentration SPNE 9912: 0.125 µg/mL
Enterococcus faecalis
  Antibacterial Activity Minimum Inhibitory Concentration EFAE 9217: 0.5 µg/mL
Moraxella catarrhalis
  Antibacterial Activity Minimum Inhibitory Concentration MCAT 30607: 0.5 µg/mL
[1]
  Antibacterial Activity Minimum Inhibitory Concentration SEPI 30593: 0.5 µg/mL
H. influenzae
  Antibacterial Activity Minimum Inhibitory Concentration HINF 30063: 4 µg/mL
Streptococcus pyogenes
  Antibacterial Activity Minimum Inhibitory Concentration SPYO 152: 0.5 µg/mL
Enterococcus faecium
  Antibacterial Activity Minimum Inhibitory Concentration EFAE 12712: 0.5 µg/mL

## CC(=O)NC[C@H]1CN(c2ccc(C3CCS(=O)(=NC(=O)OCc4ccccc4)CC3)c(F)c2)C(=O)O1 (single isomer, unassigned) [Example 33]
Staphylococcus aureus
  Antibacterial Activity Minimum Inhibitory Concentration SAUR 9213: 8 µg/mL
Streptococcus pneumoniae
  Antibacterial Activity Minimum Inhibitory Concentration SPNE 9912: 1 µg/mL
Enterococcus faecalis
  Antibacterial Activity Minimum Inhibitory Concentration EFAE 9217: 4 µg/mL
Moraxella catarrhalis
  Antibacterial Activity Minimum Inhibitory Concentration MCAT 30607: 16 µg/mL
[1]
  Antibacterial Activity Minimum Inhibitory Concentration SEPI 30593: 2 µg/mL
H. influenzae
  Antibacterial Activity Minimum Inhibitory Concentration HINF 30063: 64 µg/mL
Streptococcus pyogenes
  Antibacterial Activity Minimum Inhibitory Concentration SPYO 152: 1 µg/mL
Enterococcus faecium
  Antibacterial Activity Minimum Inhibitory Concentration EFAE 12712: 4 µg/mL

## CC(=O)NC[C@H]1CN(c2ccc(C3CCS(=O)(=NC(=O)NCc4ccccc4)CC3)c(F)c2)C(=O)O1 (single isomer, unassigned) [Example 34]
Staphylococcus aureus
  Antibacterial Activity Minimum Inhibitory Concentration SAUR 9213: 16 µg/mL
Streptococcus pneumoniae
  Antibacterial Activity Minimum Inhibitory Concentration SPNE 9912: 1 µg/mL
Enterococcus faecalis
  Antibacterial Activity Minimum Inhibitory Concentration EFAE 9217: 4 µg/mL
Moraxella catarrhalis
  Antibacterial Activity Minimum Inhibitory Concentration MCAT 30607: 16 µg/mL
[1]
  Antibacterial Activity Minimum Inhibitory Concentration SEPI 30593: 2 µg/mL
H. influenzae
  Antibacterial Activity Minimum Inhibitory Concentration HINF 30063: 32 µg/mL
Streptococcus pyogenes
  Antibacterial Activity Minimum Inhibitory Concentration SPYO 152: 2 µg/mL
Enterococcus faecium
  Antibacterial Activity Minimum Inhibitory Concentration EFAE 12712: 4 µg/mL

## CC(=S)NC[C@H]1CN(c2ccc(N3CCS(=N)(=O)CC3)c(F)c2)C(=O)O1 [Example 1, N-({(5S)-3-[3-Fluoro-4-(1-imino-1-oxido-1λ^4,4-thiazinan-4-yl)phenyl]-2-oxo-1,3-oxazolidin-5-yl}methyl)ethanethioamide]
Staphylococcus aureus
  Antibacterial Activity Minimum Inhibitory Concentration SAUR 9213: 1 µg/mL
Streptococcus pneumoniae
  Antibacterial Activity Minimum Inhibitory Concentration SPNE 9912: 0.25 µg/mL
Enterococcus faecalis
  Antibacterial Activity Minimum Inhibitory Concentration EFAE 9217: 1 µg/mL
Moraxella catarrhalis
  Antibacterial Activity Minimum Inhibitory Concentration MCAT 30607: 2 µg/mL
[1]
  Antibacterial Activity Minimum Inhibitory Concentration SEPI 30593: 0.5 µg/mL
H. influenzae
  Antibacterial Activity Minimum Inhibitory Concentration HINF 30063: 4 µg/mL
Streptococcus pyogenes
  Antibacterial Activity Minimum Inhibitory Concentration SPYO 152: 0.25 µg/mL
Enterococcus faecium
  Antibacterial Activity Minimum Inhibitory Concentration EFAE 12712: 1 µg/mL
